Measurements as given in US11970471B1, “3-(4-chlorophenyl)-5-{[5-methyl-2-(propan-2-yl)phenoxy]methyl }- 1,2,4-oxadiazole as an antitumor and antimicrobial compound” (KING FAISAL UNIVERSITY, priority 2023, dated 2024).

What was measured:
[1] = tested on: Human prostate cancer cells (PC3); assay: Cytotoxicity by SRB assay, PC3 cells; assay type: cell-based; conditions: 0.01 μM to 100 μM for 72 h
Description: (§1) Human prostate cancer cells (PC3) and human osteosarcoma cells (MG-63) were obtained from Nawah Scientific Inc. (Mokatam, Cairo, Egypt) and cultured in DMEM (Dulbecco's modified eagle's medium), Gibco, USA, supplemented with fetal bovine serum (FBS) at a concentration of 10% and 100 U/mL of penicillin and streptomycin (PS). The cells were incubated at 37° C. in a humidified environment that contained 5% CO2. Cells were seeded in 96-well plates as aliquots of 100 μL cell suspension and incubated in a complete media for 24 h. afterward, cells were treated with 3-(4-chlorophenyl)-5-{[5-methyl-2-(propan-2-yl)phenoxy]methyl}-1,2,4-oxadiazole at diverse concentrations ranging from 0.01 μM to 100 μM for 72 h. Then, cells were fixed at 4° C. for one hour with 150 μL of 10% trichloroacetic acid (TCA). After washing the cells five times with distilled water, 70 μL of sulforhodamine (SRB) solution (0.4% w/v) was added and incubated for 10 min at room temperature in a dark place. […] Then, 150 μL of Tris pH 10.5 (10 mM) was added, and the absorbance was measured at 540 nm using a BMG LABTECH®-FLUOstar Omega microplate reader (Ortenberg, Germany). Half maximal inhibitory concentrations (IC50) values were calculated for each experiment using GraphPad Prism 6 software. […] The inhibition was calculated using the following equation: Inhibition %=100−Average Viability

[2] = tested on: human osteosarcoma cells (MG-63); assay: Cytotoxicity by SRB assay, MG-63 cells; assay type: cell-based; conditions: 0.01 μM to 100 μM for 72 h
Description: as §1

melting point: 166 to 167 °C
Structure (SMILES): Cc1ccc(C(C)C)c(OCc2nc(-c3ccc(Cl)cc3)no2)c1 [3-(4-chlorophenyl)-5-{[5-methyl-2-(propan-2-yl)phenoxy]methyl}-1,2,4-oxadiazole]
antiproliferative activity [1]: excellent antiproliferative activities | antiproliferative activity [2]: excellent antiproliferative activities
